According to ChEMBL document CHEMBL5226385, “The Antiangiogenic and Antitumor Effects of Scoparasin B in Non-Small-Cell Lung Cancer” (J Nat Prod, 2023):
Activity calls are given as the source filed them. The rule behind the calls is not given here.

Legend:
NCI-H1299 [1] = assay: Antitumor activity against human NCI-H1299 cells xenografted in BALB/c nude mouse assessed as reduction in tumor weight at 0.75 to 1.5 mg/kg, ip administered every other day for 20 days; type: functional, organism-based; conditions: dose 0.75-1.5 mg/kg, time 20.0 day
NCI-H1299 [2] = assay: Inhibition of VEGF-A secretion in human NCI-H1299 cells at 5 to 15 nM incubated for 24 hrs by ELISA; type: functional, cell-based; conditions: dose 5-15 nM
[3] = Toxicity against BALB/c nude mouse xenografted with human NCI-H1299 cells assessed as morphological changes in heart at 0.75 to 1.5 mg/kg, ip administered every other day for 20 days by Hematoxylin and eosin staining based inverted microscopic analysis; type: organism-based; conditions: in vivo, 480 h, dose 0.75-1.5 mg/kg, time 20 day
[4] = Toxicity against BALB/c nude mouse xenografted with human NCI-H1299 cells assessed as morphological changes in lungs at 0.75 to 1.5 mg/kg, ip administered every other day for 20 days by Hematoxylin and eosin staining based inverted microscopic analysis; type: organism-based; conditions: in vivo, 480 h, dose 0.75-1.5 mg/kg, time 20 day
[5] = molecular target: Vascular endothelial growth factor receptor 2 (Homo sapiens) (UniProt P35968); assay: Inhibition of VEGF-A-mediated VEGFR2 signaling pathway in human HMEC-1 cells assessed as reduction in FAK phosphorylation at Tyr397 residue at 5 to 15 nM incubated for 36 hrs by western blot analysis; type: cell-based; conditions: dose 5-15 nM
HMEC-1 [6] = assay: Antiangiogenic activity against human HMEC-1 cells assessed as inhibition of cell migration measured after 24 hrs by Transwell migration assay; type: functional, cell-based; conditions: dose 5-15 nM
NCI-H1299 [7] = assay: Inhibition of vasculogenic-mimicry in human NCI-H1299 cells assessed as inhibition of cell migration at 5 to 15 nM measured after 24 hrs by Transwell migration assay; type: functional, cell-based; conditions: dose 5-15 nM
HMEC-1 [8] = assay: Inhibition of VEGF-A secretion in human HMEC-1 cells incubated for 36 hrs by ELISA; type: functional, cell-based; conditions: dose 5-15 nM
HUVEC [9] = assay: Antiangiogenic activity against human HUVEC cells assessed as inhibition of capillary tube-like structure formation incubated for 6 hrs by Matrigel based analysis; type: functional, cell-based; conditions: dose 5-20 nM
HMEC-1 [10] = assay: Downregulation of VEGF-A protein expression in human HMEC-1 cells at 5 to 15 nM incubated for 36 hrs by western blot analysis; type: functional, cell-based; conditions: dose 5-15 nM
NCI-H1299 [11] = assay: Downregulation of VE-Cadherin mRNA expression in human NCI-H1299 cells at 5 to 15 nM incubated for 24 hrs by qPCR analysis; type: functional, cell-based; conditions: dose 5-15 nM
Mus musculus [12] = assay: Inhibition of tumor angiogenesis in BALB/c nude mouse xenografted with human NCI-H1299 cells assessed as reduction in microvessel density of the tumor at 0.75 to 1.5 mg/kg, ip administered every other day for 20 days by CD31 staining based immunohistochemical analysis; type: functional, organism-based; conditions: dose 0.75-1.5 mg/kg, time 20.0 day
Mus musculus [13] = assay: Downregulation of VEGF-A protein expression in tumor of BALB/c nude mouse xenografted with human NCI-H1299 cells at 0.75 to 1.5 mg/kg, ip administered every other day for 20 days by immunohistochemical analysis; type: functional, organism-based; conditions: dose 0.75-1.5 mg/kg, time 20.0 day
NCI-H1299 [14] = assay: Upregulation of E-Cadherin mRNA expression in human NCI-H1299 cells at 5 to 15 nM incubated for 24 hrs by qPCR analysis; type: functional, cell-based; conditions: dose 5-15 nM
Gallus gallus = organism: Gallus gallus; assay: Ex vivo antiangiogenesis activity in chicken embryo chorioallantonic membrane assessed as reduction in microvessel density at 5 to 20 nM measured after 48 hrs by stereomicroscopic analysis; type: functional, organism-based; conditions: Chorioallantoic membrane, dose 5-20 nM
[15] = molecular target: Vascular endothelial growth factor receptor 2 (Homo sapiens) (UniProt P35968); assay: Inhibition of VEGF-A-mediated VEGFR2 signaling pathway in human HUVEC cells assessed as reduction in Akt phosphorylation at Thr308 residue at 5 to 15 nM incubated for 36 hrs by western blot analysis; type: cell-based; conditions: dose 5-15 nM
NCI-H1299 [16] = assay: Downregulation of Vimentin protein expression in human NCI-H1299 cells at 5 to 15 nM incubated for 24 hrs by western blot analysis; type: functional, cell-based; conditions: dose 5-15 nM
HUVEC [17] = assay: Inhibition of VEGF-A secretion in human HUVEC cells incubated for 36 hrs by ELISA; type: functional, cell-based; conditions: dose 5-15 nM
NCI-H1299 [18] = assay: Downregulation of Snail mRNA expression in human NCI-H1299 cells at 5 to 15 nM incubated for 24 hrs by qPCR analysis; type: functional, cell-based; conditions: dose 5-15 nM
[19] = molecular target: Vascular endothelial growth factor receptor 2 (Homo sapiens) (UniProt P35968); assay: Inhibition of VEGF-A-mediated VEGFR2 signaling pathway in human HUVEC cells assessed as reduction in FAK phosphorylation at Tyr397 residue at 5 to 15 nM incubated for 36 hrs by western blot analysis; type: cell-based; conditions: dose 5-15 nM
HBVP [20] = assay: Inhibition of PDGF-BB mRNA expression in human HBVP cells at 5 to 15 nM incubated for 24 hrs by qPCR analysis; type: functional, cell-based; conditions: dose 5-15 nM
NCI-H1299 [21] = assay: Antitumor activity against human NCI-H1299 cells xenografted in BALB/c nude mouse assessed as reduction in Ki67 expression in tumor at 0.75 to 1.5 mg/kg, ip administered every other day for 20 days by immunohistochemical analysis; type: functional, organism-based; conditions: dose 0.75-1.5 mg/kg, time 20.0 day
NCI-H1299 [22] = assay: Antitumor activity against human NCI-H1299 cells xenografted in BALB/c nude mouse assessed as tumor volume at 0.75 mg/kg, ip administered every other day for 20 days by vernier caliper analysis (reference value: 1206.46 +/-332.44 mm3); type: functional; conditions: time 20 day
HUVEC [23] = assay: Cytotoxicity against human HUVEC cells assessed as reduction in cell proliferation upto 25 nM measured after 48 hrs by CCK8 assay; type: toxicity, cell-based; conditions: 0.025 µM
HUVEC [24] = assay: Downregulation of VEGFR2 protein expression in human HUVEC cells at 5 to 15 nM incubated for 36 hrs by western blot analysis; type: functional, cell-based; conditions: dose 5-15 nM
NCI-H1299 [25] = assay: Downregulation of MMP9 protein expression in human NCI-H1299 cells at 5 to 15 nM incubated for 24 hrs by western blot analysis; type: functional, cell-based; conditions: dose 5-15 nM
NCI-H1299 [26] = assay: Downregulation of Vimentin mRNA expression in human NCI-H1299 cells at 5 to 15 nM incubated for 24 hrs by qPCR analysis; type: functional, cell-based; conditions: dose 5-15 nM
HBVP [27] = assay: Inhibition of PDGFR-beta protein expression in human HBVP cells at 5 to 15 nM incubated for 24 hrs by western blot analysis; type: functional, cell-based; conditions: dose 5-15 nM
NCI-H1299 [28] = assay: Inhibition of vasculogenic-mimicry in human NCI-H1299 cells assessed as inhibition of cell invasion at 5 to 15 nM measured after 24 hrs by Transwell invasion assay; type: functional, cell-based; conditions: dose 5-15 nM
HMEC-1 [29] = assay: Cytotoxicity against human HMEC-1 cells assessed as reduction in cell proliferation upto 25 nM measured after 48 hrs by CCK8 assay; type: toxicity, cell-based; conditions: hmec-1, 48 h, 0.025 µM
HMEC-1 [30] = assay: Antiangiogenic activity against human HMEC-1 cells assessed as inhibition of capillary tube-like structure formation incubated for 6 hrs by Matrigel based analysis; type: functional, cell-based; conditions: dose 5-20 nM
[31] = molecular target: Vascular endothelial growth factor receptor 2 (Homo sapiens) (UniProt P35968); assay: Inhibition of VEGF-A-mediated VEGFR2 signaling pathway in human HUVEC cells assessed as reduction in VEGFR2 phosphorylation at Tyr1175 residue at 5 to 15 nM incubated for 36 hrs by western blot analysis; type: cell-based; conditions: dose 5-15 nM
NCI-H1299 [32] = assay: Downregulation of Snail protein expression in human NCI-H1299 cells at 5 to 15 nM incubated for 24 hrs by western blot analysis; type: functional, cell-based; conditions: dose 5-15 nM
HMEC-1 [33] = assay: Antiangiogenic activity against human HMEC-1 cells assessed as inhibition of capillary tube-like structure formation at 15 nM incubated for 6 hrs by Matrigel based analysis; type: functional; design: scale not given: the % may be the effect or the level left

Vascular endothelial growth factor receptor 2 (Homo sapiens), sequence (P35968 whole entry): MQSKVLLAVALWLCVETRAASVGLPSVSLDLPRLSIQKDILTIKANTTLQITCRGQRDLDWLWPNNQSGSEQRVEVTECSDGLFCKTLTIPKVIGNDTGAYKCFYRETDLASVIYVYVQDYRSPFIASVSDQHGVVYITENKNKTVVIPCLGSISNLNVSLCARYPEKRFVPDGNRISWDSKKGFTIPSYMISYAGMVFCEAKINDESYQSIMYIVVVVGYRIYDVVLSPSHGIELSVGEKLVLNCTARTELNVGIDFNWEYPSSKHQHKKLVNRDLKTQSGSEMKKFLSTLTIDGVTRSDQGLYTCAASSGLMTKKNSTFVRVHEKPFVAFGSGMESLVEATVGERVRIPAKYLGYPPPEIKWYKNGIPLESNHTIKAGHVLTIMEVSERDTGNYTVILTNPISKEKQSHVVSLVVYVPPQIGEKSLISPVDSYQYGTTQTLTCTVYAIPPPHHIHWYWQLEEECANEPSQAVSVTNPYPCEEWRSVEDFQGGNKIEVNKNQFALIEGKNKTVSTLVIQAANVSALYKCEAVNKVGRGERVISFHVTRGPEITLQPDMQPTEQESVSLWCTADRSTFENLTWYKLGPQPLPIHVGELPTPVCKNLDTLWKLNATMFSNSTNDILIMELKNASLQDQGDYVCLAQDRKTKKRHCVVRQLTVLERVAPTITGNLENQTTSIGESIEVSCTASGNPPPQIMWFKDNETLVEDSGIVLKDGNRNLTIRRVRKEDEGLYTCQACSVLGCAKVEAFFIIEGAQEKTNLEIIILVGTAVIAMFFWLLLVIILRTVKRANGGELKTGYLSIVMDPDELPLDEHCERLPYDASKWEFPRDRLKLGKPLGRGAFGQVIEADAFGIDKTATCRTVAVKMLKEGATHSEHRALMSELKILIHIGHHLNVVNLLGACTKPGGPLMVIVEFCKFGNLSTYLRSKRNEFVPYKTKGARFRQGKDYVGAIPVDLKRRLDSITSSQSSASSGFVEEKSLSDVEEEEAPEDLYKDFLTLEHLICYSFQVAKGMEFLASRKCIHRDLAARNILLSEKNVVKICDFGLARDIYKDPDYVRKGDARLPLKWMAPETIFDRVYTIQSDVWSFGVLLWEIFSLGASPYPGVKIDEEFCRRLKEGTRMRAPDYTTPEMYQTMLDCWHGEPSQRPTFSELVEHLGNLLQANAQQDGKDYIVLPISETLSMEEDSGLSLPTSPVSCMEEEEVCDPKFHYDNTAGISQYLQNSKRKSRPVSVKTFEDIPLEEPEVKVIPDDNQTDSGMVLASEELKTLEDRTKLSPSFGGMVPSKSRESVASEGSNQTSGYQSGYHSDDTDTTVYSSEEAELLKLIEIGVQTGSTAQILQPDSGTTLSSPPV

With `COc1ccc(C[C@@H]2NC(=O)[C@@]34OC(=O)O/C=C/[C@@](C)(O)C(=O)[C@@H](C)C/C=C/[C@H]3[C@H](O)[C@](C)(O)[C@@H](C)[C@@H]24)cc1` [SCOPARASIN B] the Activity (NCI-H1299 [1]) was “Active”, the inhibition (NCI-H1299 [2]) was “Active” and the Activity [3] was “Non-Toxic”. The Activity [4] was “Non-Toxic”, the inhibition [5] was “Active” and the Activity (HMEC-1 [6]) was “Dose-Dependent Effect”. The inhibition (NCI-H1299 [7]) was “Active”, the inhibition (HMEC-1 [8]) was “Dose-Dependent Effect” and the Activity (HUVEC [9]) was “Dose-Dependent Effect”. The inhibition (HMEC-1 [10]) was “Active”, the inhibition (NCI-H1299 [11]) was “Active” and the inhibition (Mus musculus [12]) was “Active”. The inhibition (Mus musculus [13]) was “Active”, the Activity (NCI-H1299 [14]) was “Active” and the Activity (Gallus gallus) was “Active”. For the same molecule, the inhibition [15] was “Active”, the inhibition (NCI-H1299 [16]) was “Active” and the inhibition (HUVEC [17]) was “Dose-Dependent Effect”. The inhibition (NCI-H1299 [18]) was “Active”, the inhibition [19] was “Active” and the inhibition (HBVP [20]) was “Active”. For the same molecule, the Activity (NCI-H1299 [21]) was “Active”, the Activity (NCI-H1299 [22]) was 559.86 mm3 and the Activity (HUVEC [23]) was “Non-Toxic”. For the same molecule, the inhibition (HUVEC [24]) was “inactive”, the inhibition (NCI-H1299 [25]) was “Active” and the inhibition (NCI-H1299 [26]) was “Active”. The inhibition (HBVP [27]) was “inactive”, the inhibition (NCI-H1299 [28]) was “Active” and the Activity (HMEC-1 [29]) was “Non-Toxic”. For the same molecule, the Activity (HMEC-1 [30]) was “Dose-Dependent Effect”, the inhibition [31] was “Active” and the inhibition (NCI-H1299 [32]) was “Active”. It also gave an Activity (HMEC-1 [33]) of 100%.
